This assay deals with Glycogen synthase kinase-3 beta (Homo sapiens, UniProt P49841). Nature of the assay: GSK3beta kinase inhibitor potency, dose response, biochemical, luminescence, cell-free homogeneous, retest (AID 434954).
Glycogen synthase kinase-3 beta, sequence (P49841 whole entry): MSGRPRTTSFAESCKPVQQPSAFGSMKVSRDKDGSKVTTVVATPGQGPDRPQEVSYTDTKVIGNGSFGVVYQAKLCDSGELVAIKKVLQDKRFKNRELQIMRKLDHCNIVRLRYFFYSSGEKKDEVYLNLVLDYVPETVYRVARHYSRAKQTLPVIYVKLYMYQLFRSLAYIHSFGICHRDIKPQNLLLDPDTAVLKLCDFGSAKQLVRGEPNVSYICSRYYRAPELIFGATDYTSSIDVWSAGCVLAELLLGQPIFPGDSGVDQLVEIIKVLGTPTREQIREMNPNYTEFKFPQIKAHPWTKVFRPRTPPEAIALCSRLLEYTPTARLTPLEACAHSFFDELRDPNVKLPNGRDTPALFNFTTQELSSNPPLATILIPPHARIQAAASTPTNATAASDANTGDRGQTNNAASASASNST
With `CCCn1c(SCC(=O)N2CCCCC2)nnc1-c1ccccn1` [1-piperidin-1-yl-2-[(4-propyl-5-pyridin-2-yl-1,2,4-triazol-3-yl)sulfanyl]ethanone], the EC50 – broadly, the concentration giving half of the maximal effect – is > 300 µM.

In the case of `C=CCn1c(=O)c(C(=O)NCc2ccc(Cl)cc2)c(O)c2ccccc21` [N-[(4-chlorophenyl)methyl]-2-hydroxy-4-oxo-1-prop-2-enyl-3-quinolinecarboxamide], the EC50 is > 300 µM.

In turn, `Nc1nonc1-n1nnc(C(=O)NN=Cc2cc(Cl)ccc2O)c1CN1CCCCCC1` [SMR000620619] registered an EC50 of 8.67 µM.

For `CCN1CCN(Cc2c(O)ccc3c2O/C(=C\C=C\c2ccccc2)C3=O)CC1` [SMR000221319], the concentration for a half-maximal effect (EC50) was > 300 µM.

In the case of `O=[N+]([O-])c1ccccc1S(=O)(=O)Nc1ccc(S(=O)(=O)Nc2nccs2)cc1`, the EC50 is > 300 µM.

Regarding `CCN(CC)Cc1c(C(=O)OC)nnn1-c1nonc1N` [MLS000085717], the concentration for a half-maximal effect (EC50) is > 300 µM.

Molecule `CCN1CCN(CCNC(=O)c2ccc3c(c2)NC(=O)/C(=C\c2ccc(OC)c(OC)c2)S3)CC1` [(2E)-2-[(3,4-dimethoxyphenyl)methylidene]-N-[2-(4-ethylpiperazin-1-yl)ethyl]-3-oxidanylidene-4H-1,4-benzothiazine-6-carboxamide] showed a concentration giving a half-maximal response (EC50) of 16.3 µM.

As for `O=C(O)c1cccc(CSc2nnc(-c3cccnc3)o2)c1` [SMR000503811], the EC50 was > 300 µM.

For `CCOC(=O)c1ccc(NC(=O)Nc2ccccn2)cc1` [MLS000679333], the half-maximal effective concentration (EC50) is > 300 µM.

Regarding `Cn1c(=O)[nH]c(=O)c2c1nc(Br)n2Cc1ccccc1Cl` [MLS000031623], the EC50 is > 300 µM.

Regarding `COc1ccc(CC(=O)Nc2ncc([N+](=O)[O-])s2)cc1OC` [SMR000288398], a half-maximal response (EC50) required 8.4 µM.

Regarding `Cc1nn(-c2ccccn2)c2c1C(c1ccsc1)C1C(=O)CCCC1=N2` (centres undefined) [ethanol;3-methyl-1-(2-pyridinyl)-4-(3-thiophenyl)-4,6,7,8-tetrahydro-2H-pyrazolo[3,4-b]quinolin-5-one], the 50% effective concentration (EC50) was > 300 µM.

On to `Cc1ccc(C(=O)c2coc3ccc(OCC(=O)O)cc23)cc1` [2-[[3-[(4-methylphenyl)-oxomethyl]-5-benzofuranyl]oxy]acetic acid], for which it took 3.66 µM to reach a half-maximal effect (EC50).

`O=c1cc(O)cc2oc(-c3ccc(O)c(O)c3)c(O[C@@H]3O[C@H](CO)[C@@H](O)[C@H](O)[C@H]3O)c(O)c1-2` [Quercetin 3-O-beta-D-glucoside] had an EC50 of 15.8 µM.

`Nc1nc(NCc2ccc(Cl)cc2)nc(NCCO)c1[N+](=O)[O-]` [SMR000436738] returned an EC50 of 13.6 µM.

For the molecule `COc1cccc(/C=C2\Sc3ccc(C(=O)NCC4CCCO4)cc3N(C)C2=O)c1` (centres undefined) [SMR000622267], the EC50 was > 300 µM.

Take `CC(=O)Oc1ccc2occ(C(=O)c3ccccc3)c2c1` [acetic acid (3-benzoyl-5-benzofuranyl) ester]: the EC50 is > 300 µM.

On to `Cc1cccc(Nc2nc(N)c([N+](=O)[O-])c(NCc3ccccc3)n2)c1` [MLS000332785], for which the EC50 was determined as 21.4 µM.

Molecule `O=C(CN1CCN(Cc2ccccc2Cl)CC1)NN=Cc1ccccn1` displayed a concentration for a half-maximal effect (EC50) of 51.5 µM.

Take `COc1ccc(CCNC(=O)CN2CCOc3ccccc32)cc1OC` [2-(2,3-dihydro-1,4-benzoxazin-4-yl)-N-[2-(3,4-dimethoxyphenyl)ethyl]acetamide]: the EC50 is > 300 µM.

Take `CNCCCOc1cc(C)cc(C)c1C` [N-methyl-3-(2,3,5-trimethylphenoxy)propan-1-amine;oxalic acid]: the EC50 was > 300 µM.

For the molecule `CCSc1nnc(-c2cccs2)o1` [2-ethylsulfanyl-5-thiophen-2-yl-1,3,4-oxadiazole], the EC50 is > 300 µM.

Turning to `O=C(C1CCCN(S(=O)(=O)c2ccccc2)C1)N1CCN(c2ncccn2)CC1` (centres undefined) [[1-(phenylsulfonyl)piperidin-3-yl]-(4-pyrimidin-2-ylpiperazin-1-yl)methanone], the EC50 was > 300 µM.

Turning to `Cc1ccc(-c2cc(C(=O)NCCc3ccccn3)c3ccccc3n2)c(C)c1` [SMR000264677], the EC50 was > 300 µM.

In the case of `COCCN(CCOC)Cc1c(O)ccc2c1O/C(=C\c1ccco1)C2=O` [SMR000544009], the EC50 is > 300 µM.

Regarding `COc1cccc(-c2ccc3nnc(SCC(=O)Nc4ccc(NC(C)=O)cc4)n3n2)c1` [N-(4-acetamidophenyl)-2-[[6-(3-methoxyphenyl)-[1,2,4]triazolo[4,3-b]pyridazin-3-yl]sulfanyl]ethanamide], the EC50 was > 300 µM.

Consider `Nc1nonc1-n1nnc(C(=O)NN=Cc2c(Cl)cccc2Cl)c1CN1CCOCC1` [1-(4-azanyl-1,2,5-oxadiazol-3-yl)-N-[[2,6-bis(chloranyl)phenyl]methylideneamino]-5-(morpholin-4-ylmethyl)-1,2,3-triazole-4-carboxamide], for which it took 55.2 µM to reach a half-maximal effect (EC50).

Consider `Cc1cc2cc(CN(CCCN3CCOCC3)C(=O)NC3CCCCC3)c(=O)[nH]c2cc1C` [3-cyclohexyl-1-[(6,7-dimethyl-2-oxo-1H-quinolin-3-yl)methyl]-1-(3-morpholin-4-ylpropyl)urea], for which the half-maximal effective concentration (EC50) is > 300 µM.

With `CC1CCN(Cc2c(C(=O)NN=Cc3ccccc3O)nnn2-c2nonc2N)CC1` [SMR000620333], the EC50 came to 0.7 µM.

`CC1=C(C(=O)OCC2CCCO2)C(c2ccsc2)C2C(=O)CC(C)(C)CC2=N1` (centres undefined) [SMR000279706]: the 50% effective concentration (EC50) was > 300 µM.

As for `CN1CCN(CCNC(=O)Nc2ccccc2[N+](=O)[O-])CC1` [N-[2-(4-methylpiperazin-1-yl)ethyl]-N'-(2-nitrophenyl)urea], the EC50 is > 300 µM.

On to `CCCCC(CC)C(=O)Nc1ncc([N+](=O)[O-])s1` (centres undefined) [2-ethyl-N-(5-nitro-2-thiazolyl)hexanamide], for which the concentration giving a half-maximal response (EC50) came out at 64.2 µM.

`Cc1ccnc(NC(=O)C(C)n2cc([N+](=O)[O-])cn2)c1` (centres undefined) yielded an EC50 of 7.19 µM.

As to `O=c1cc(-c2ccccc2)oc2cc(O)cc(O)c12` [5,7-dihydroxy-2-phenyl-4H-chromen-4-one], the EC50 is > 300 µM.

As for `Cc1cc(C)c(NC(=O)c2ccc(S(=O)(=O)N3CCOCC3)cc2)c(C)c1` [MLS000100511], the EC50 is > 300 µM.

Consider `CCCCC(=O)Nc1ncc(Br)s1` [MLS000066333], for which the EC50 came out at 4.13 µM.

In the case of `CCOC(=O)c1sc(NC(=O)CSc2nnc(C(C)C)n2C)nc1C` [2-[2-(5-Isopropyl-4-methyl-4H-[1,2,4]triazol-3-ylsulfanyl)-acetylamino]-4-methyl-thiazole-5-carboxylic acid ethyl ester], the EC50 was determined as 26 µM.

On to `CCCc1c(C(=O)NN=Cc2ccncc2)nnn1-c1nonc1N`, for which the EC50 is > 300 µM.

For `CCOC(=O)C1C(=CN2CCSCC2)NC(=O)NC1c1cc(C)ccc1C` (centres undefined) [MLS000052412], the EC50 is > 300 µM.

On to `COc1ccc(-c2nn(-c3ccccc3)cc2C=Nn2c(O)csc2=S)cc1` [MLS000558856], for which the EC50 is > 300 µM.

Regarding `COC(=O)c1ccc(CSc2nnc(-c3ccncc3)o2)cc1`, the 50% effective concentration (EC50) is > 300 µM.

Regarding `O=C(c1cccc(-c2ccccc2)c1)N1CC[C@@H](N2CCC(O)CC2)[C@H](O)C1`, the EC50 was > 300 µM.

Turning to `CCOC(=O)CC(=O)CSc1ccc2nnc(-c3cccc(F)c3)n2n1` [ethyl 4-[[3-(3-fluorophenyl)-[1,2,4]triazolo[4,3-b]pyridazin-6-yl]sulfanyl]-3-oxobutanoate], the concentration for a half-maximal effect (EC50) was > 300 µM.

Molecule `CN(CCO)c1cc(N2CCC3(CC2)OCCO3)c2nonc2c1[N+](=O)[O-]` [MLS000584853] displayed an EC50 of 68 µM.

Values taken from BindingDB's records for doi:10.7270/Q2TX3CTT (Broad Institute, 2010).
